Measurements as given in patent publication US7262220B2, “Urea- and urethane-substituted acylureas, process for their preparation and their use” (Sanofi-Aventis Deutschland GmbH, priority 2002, dated 2007).
Like-named read-outs stand apart in the source and are kept apart here.

Molecular target: T1, human glycogen phosphorylase a (Homo sapiens, UniProt P06737)
T1 sequence (P06737 1-847): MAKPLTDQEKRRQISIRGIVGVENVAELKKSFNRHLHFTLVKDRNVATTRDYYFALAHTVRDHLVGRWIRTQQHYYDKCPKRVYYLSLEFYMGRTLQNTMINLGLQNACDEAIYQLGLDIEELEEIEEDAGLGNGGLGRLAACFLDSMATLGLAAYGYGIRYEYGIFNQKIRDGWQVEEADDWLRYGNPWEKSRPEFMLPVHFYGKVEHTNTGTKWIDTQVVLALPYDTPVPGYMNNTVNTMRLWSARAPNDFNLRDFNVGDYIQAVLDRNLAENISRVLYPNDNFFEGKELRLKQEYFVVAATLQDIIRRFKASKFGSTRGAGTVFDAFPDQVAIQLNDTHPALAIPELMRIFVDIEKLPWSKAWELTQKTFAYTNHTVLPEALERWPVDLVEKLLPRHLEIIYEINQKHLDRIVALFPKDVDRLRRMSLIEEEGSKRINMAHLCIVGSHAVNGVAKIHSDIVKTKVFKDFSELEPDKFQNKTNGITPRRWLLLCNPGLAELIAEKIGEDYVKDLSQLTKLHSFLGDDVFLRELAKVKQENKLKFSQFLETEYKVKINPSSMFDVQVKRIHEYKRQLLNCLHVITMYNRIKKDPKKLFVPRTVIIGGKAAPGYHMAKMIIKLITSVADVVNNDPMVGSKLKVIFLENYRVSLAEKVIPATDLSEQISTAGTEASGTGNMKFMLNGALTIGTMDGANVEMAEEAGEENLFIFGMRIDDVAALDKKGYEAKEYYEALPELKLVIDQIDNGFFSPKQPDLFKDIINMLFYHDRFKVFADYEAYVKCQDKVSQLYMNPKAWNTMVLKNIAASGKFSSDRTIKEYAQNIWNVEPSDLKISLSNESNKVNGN
Test: Glycogen phosphorylase a activity assay
Format: biochemical
Conditions: read-out: % inhibition at 10 μM
Experimental: Glycogen Phosphorylase a Activity Assay
The effect of compounds on the activity of the active form of glycogen phosphorylase (GPa) was measured in the reverse direction by following the synthesis of glycogen from glucose 1-phosphate by determining the liberation of inorganic phosphate. All the reactions were carried out as duplicate determinations in microtiter plates with 96 wells (Half Area Plates, Costar No 3696), measuring the change in absorption owing to the formation of the reaction product at the wavelength specified hereinafter in a Multiskan Ascent Elisa Reader (Lab Systems, Finland). In order to measure the GPa enzymic activity in the reverse direction, the general method of Engers et al. (Engers H D, Shechosky S, Madsen N B, Can J Biochem 1970 July; 48(7):746-754) was used to measure the conversion of glucose 1-phosphate into glycogen and inorganic phosphate, with the following modifications: human glycogen phosphorylase a (for example with 0.76 mg of protein/ml (Aventis Pharma Deutschland GmbH), dissolved in buffer solution E (25 mM β-glycerophosphate, pH 7.0, 1 mM EDTA and 1 mM dithiothreitol) was diluted with buffer T (50 mM hepes, pH 7.0, 100 mM KCl, 2.5 mM EDTA, 2.5 mM MgCl26H2O) and addition of 5 mg/ml glycogen to a concentration of 10 μg of protein/ml. […] The baseline glycogen phosphorylase a activity in the absence of test substance was determined by adding 10 μl of buffer solution T (0.1% DMSO). The mixture was incubated at room temperature for 40 minutes, and the liberated […] was measured by the general method of Drueckes et al. (Drueckes P, Schinzel R, Palm D, Anal Biochem 1995 Sep. 1; 230(1):173-177) with the following modifications: 50 μl of a stop solution of 7.3 mM ammonium molybdate, 10.9 mM zinc acetate, 3.6% ascorbic acid, 0.9% SDS are added to 50 μl of the enzyme mixture. After incubation at 45° C. for 60 minutes, the absorption at 820 nm was measured. […]

[1] = 10 μM test substance, GPa activity measured in the reverse direction (liberation of inorganic phosphate), duplicate determinations

inhibition at 10 µM [1] | SMILES | inhibition at 10 µM
97% | COc1cc2c(=O)[nH]c(=O)[nH]c2cc1NC(=O)NC(=O)c1cc(F)c(F)cc1Cl [Example 132, 1-(2-Chloro-4,5-difluorobenzoyl)-3-(6-methoxy-2,4-dioxo-1,2,3,4-tetrahydro-quinazolin-7-yl)urea] | –
– | COC(=O)/C=C/c1ccc(NC(=O)Oc2ccc(Cl)cc2)cc1NC(=O)NC(=O)c1cc(F)c(F)cc1Cl [Example 110, Methyl (E)-3-[2-[3-(2-chloro-4,5-difluorobenzoyl)ureido]-4-(4-chloro-phenoxycarbonylamino)phenyl]acrylate] | 73%
53% | COC(=O)Nc1ccc(C(=O)O)cc1NC(=O)NC(=O)c1ccc(F)cc1Cl [Example 3, 3-[3-(2-Chloro-4-fluorobenzoyl)ureido]-4-methoxycarbonylaminobenzoic acid] | –
